The subject of data set [1] is cancer cells. The data set is described as follows: MTT cytotoxic assay of esterification products (Cytotoxicity activity). Type of data set: cell-based, human. In short, it runs like this:
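Cytotoxicity was read by MTT (Carmichael method, modified), with cells seeded 24 h ahead of treatment. Sixteen human cancer lines spanning bone, lung, bladder, ovary, colon, pancreas, prostate, skin, mouth, kidney, breast, liver, brain, leukemia and cervix were used. Test samples were acyl chloride esterification products of triterpenes, as mixtures or HPLC-purified compounds.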
On the technique in general: Tetrazolium assays rely on reduction of a dye to a coloured formazan, in cell work by metabolically active cells.

Data set [2] relates to Jurkat cells. Nature of the data set: Agonist activity of anti-DR5 antibody with Tig-R in Jurkat cells, MTT. Type of data set: cell-based, human. On the procedure: Experiment 44: Agonist activity of […] anti-DR5 antibody with Tig-R in Jurkat cells Jurkat cells (Human Acute T-cell leukemia) were cultured in RPMI1640 medium with 10% FBS, antibiotics (Pen Strep) and L-Glutamine in a 37C, 5% CO2 incubator. Cells in log-growth phase (about 0.5 million cells per ml) were treated with antibody (AB) or/and Tig-R. The antibody is Human TRAIL R2/TNFRSF 10B Antibody from R&D (MAB631-100). Treatment time is 2 days. Inhibition of cell growth after treatment was determined by MTT assay.
Conditions for combination studies: Tig-R (2.5 ug/ml) was added together with AB (2-8 ng/ml). Cells

The subject of data set [3] is Human leukemia cells K562. Nature of the data set: Inhibition of cell cycling, K562, flow cytometry. Type of data set: cell-based. Conditions: K562, three days. On the procedure:
• 1. Method: Cells: Human leukemia cells K562 cultured in RPMI1640 medium. • 2. Drug: compound from present application or Tig-S (1000x stock solution in DMSO). • 3. Start cells concentration: 500000 /ml. • 4. Cells were cultured with drug (0 - 20 ug/ml) for total of three days. • 5. Cells were harvested by centrifugation (136xg, 6 minutes); fixed with 70% ethanol and kept in -20° C. before staining. • 6. Staining: Fixed cells were stained with Propidium iodide/RNase A/0.1% Triton X-100 in PBS. • 7. Flow Cytometry Analysis was performed in Baylor Core Facility with a LSRII instrument. • 8. Analysis: Single cell was gated and cell count - FL2-Area histogram were plotted. • 9. Cell distribution in different cell-cycle phases (G0/G1, S, G2/M) was analyzed.
A general note: Flow cytometry measures light scatter and fluorescence of single cells or particles in a stream.

Data set [4] concerns Human leukemia cells K562. The data set is described as follows: Inhibition of human leukemia K562 cells, cell counting. Type of data set: cell-based. As for the experimental part:
Method: • 1. Cells: Human leukemia cells K562 in RPMI1640 medium. • 2. Drug: Tig-S (1000x stock solution in DMSO). • 3. Start cells concentration: […] (500000/ml). • 4. Cells were cultured with or without drug for total of four days. • 5. Cell number is doubled after 2 days of incubation. Fresh medium (equal volume, with or without drug) was then added to culture. • 6. Cells were counted every day.

[5] abbreviates: esterification products isolated with HPLC, graded strong / moderate / weak.

Turning to “24,28-O-Tigloyl-3β,16α, 21β, 22a, 24β, 28-hexahydroxyolean-12-ene [Tig-R]”, the Cytotoxicity activity entry in data set [1] (setting [5]) is on record as “strong”. For the same compound, in data set [2] (Jurkat, Tig-R 2.5 ug/ml), the “combined effect with anti-DR5 antibody” value is on record as “synergistic”. The “increase of inhibition with Tig-R” value in data set [2] (Tig-R 2.5 ug/ml added to antibody) is listed as “about 20%”. Also, the “inhibition of cell growth” value in data set [2] (Tig-R 2.5 ug/ml alone, 2 days) was determined as 8%.
`CC=C(C)C(=O)OCC1(C)C(O)CCC2(C)C1CCC1(C)C2CC=C2C3CC(C)(C)C(O)C(O)C3(CO)C(O)CC21C` (stereo not shown) [Tig-N]: the Cytotoxicity activity entry in data set [1] (setting [5]) and in data set [1] (esterification products of E4A—Tig—N with senecioyl chloride) was “moderate” throughout.
Take `CC=C(C)C(=O)OCC1(C)C(O)CCC2(C)C1CCC1(C)C2CC=C2C3CC(C)(C)C(OC(=O)C(C)=CC)C(O)C3(CO)C(O)CC21C` (stereo not shown) [Tig-S]: in data set [3], the “concentration from which cells in G2/M phase decrease” value is at least 0.6 µg/mL and the “effect on cell cycle” value is “arresting cells in the S-phase”. Also, the “No growth (IC100), K562” value in data set [4] (beginning on day 2) was at least 2.5 µg/mL. Further, in data set [4] (cell counting, up to four days), the “IC50, Leukemia K562 cells growth” value was “about 0.6 ug/ml”.

Values taken from US20230340012A1, “NATURAL AND SYNTHETIC COMPOUNDS FOR TREATING CANCER AND OTHER DISEASES” (PACIFIC ARROW LIMITED, priority 2009, published 2023).
